{"source": "patent US20090253721A1", "about": "“Combined treatment with radiation and an epidermal growth factor receptor kinase inhibitor” (priority 2004, published 2009)", "key": {"[1]": {"system": "UM-SCC6 and H226 cell lines", "experiment": "Cell cycle analysis by flow cytometry (propidium iodide)", "format": "cell-based, human", "experimental": "Cells were harvested after 72 hours exposure of erlotinib, 24 hours exposure to 6 Gy radiation, or in combination. […] After removal of ethanol by centrifugation, cells were then incubated with phosphate-citric acid buffer [0.2 M Na2HPO4 (pH 7.8), and 4 mM citric acid] at room temperature for 45 min. After centrifugation, cells were then stained with a solution containing 33 μg/ml PI (propidium iodide), 0.13 mg/ml RNase A, 10 mM EDTA, and 0.5% Triton X-100 at 4° C. for 24 hours. Stained nuclei were analyzed for DNA-PI fluorescence using a Becton Dickinson FACScan flow cytometer. Resulting DNA distributions were analyzed by Modfit (Verity Software House, Inc., Topsham, Me.) for the proportion of cells in sub-G0, G1, S, and G2-M phases of the cell cycle."}, "[2]": {"system": "HNSCC and NSCLC cell lines", "experiment": "Apoptosis by fluorescein labeled caspase inhibitor (caspase activity), cell lines pooled", "format": "cell-based, human", "settings": "erlotinib alone 1 μM x 48 hrs", "experimental": "(§1) Cells were seeded in 100-mm dishes at a density of 6×10^5 cells per plate and upon treatment, were harvested by trypsinization, centrifuged, and the cell pellet re-suspended to a final concentration of 2×10^6 cells/ml. Caspase activity was analyzed by fluorescence spectroscopy according to the manufacturer's protocol (Chemicon International). Briefly, the 300 μL of cells were incubated with 1× Fluorescein labeled pan-caspase inhibitor FAM-VAD-FMK (Ekert, P. G., et al. (1999) Cell Death Differ. 6(11):1081-6) at 37° C. for 1 hr in a humidified atmosphere of 5% CO2. Cells were then washed twice with wash buffer, finally resuspended in 320 μL PBS. A 100 μL aliquot of the cell suspension was transferred to a black 96-well plate in triplicate. Fluorescence was analyzed on a SpectraMax fluorescence plate reader at 550 nm excitation and 600 nm emission wavelengths."}, "[3]": {"system": "H226 cells", "experiment": "Apoptosis by caspase activity, H226", "format": "cell-based, human", "settings": "erlotinib 1 μM combined with radiation 6 Gy", "experimental": "as §1"}, "[4]": {"system": "UM-SCC1 cells", "experiment": "Apoptosis by caspase activity, UM-SCC1", "format": "cell-based, human", "settings": "erlotinib 1 μM combined with radiation 6 Gy", "experimental": "as §1"}, "[5]": {"system": "UM-SCC6 cells", "experiment": "Apoptosis by caspase activity, UM-SCC6", "format": "cell-based, human", "settings": "erlotinib 1 μM combined with radiation 6 Gy, p<0.05", "experimental": "as §1"}, "[6]": {"system": "UM-SCC1 cells", "experiment": "PARP cleavage by western blot, UM-SCC1", "format": "cell-based, human", "experimental": "(§2) Following treatment, cells were lysed with RIPA buffer and sonicated in complete proteinase inhibitor cocktail (Roche) and sodium orthovanadate. Fifteen μg of protein extracts were mixed with SDS sample buffer and electrophoresed onto a 10% SDS-polyacrylamide gel under reducing conditions. The separated proteins were transferred onto nitrocellulose membranes (Amersham Pharmacia Biotech, Piscataway, N.J.). The membrane was incubated for 1 hour in blocking buffer (Tris-buffered saline with 0.1% Tween (TBS-T) and 5% nonfat dry milk). The membranes were then incubated with specific primary antibodies. After washing three times with TBS-T buffer, the membrane was incubated with horseradish peroxidase-linked secondary antibody (Amersham Pharmacia Biotech, Piscataway, N.J.) at 1:5000 dilution for 1 hour at room temperature. The signals were visualized with the ECL+ detection system and autoradiography."}, "[7]": {"system": "UM-SCC6 cells", "experiment": "PARP cleavage by western blot, UM-SCC6", "format": "cell-based, human", "settings": "erlotinib/radiation combination, data not shown"}, "[8]": {"system": "Rad51", "experiment": "Radiation-induced Rad51 expression, immunoblot", "format": "cell-based, human", "settings": "pretreated with 1 μM erlotinib for 24 hrs; H226 and UM-SCC6; 6 Gy", "experimental": "as §2"}, "[9]": {"system": "UM-SCC1 cells", "experiment": "Radiation clonogenic survival, UM-SCC1", "format": "cell-based, human", "settings": "erlotinib 0.1 μM for 3 days before irradiation, 3, 6, and 9 Gy (p<0.01)", "protocol": "(§3) Survival following radiation exposure was defined as the ability of the cells to maintain their clonogenic capacity and to form colonies. Briefly, after exposure to radiation, cells were trypsinized, counted and seeded for colony formation in 35-mm dishes at 50-5000 cells/dish. After incubation intervals of 14-21 days, colonies were stained with crystal violet and manually counted. Colonies consisting of 50 cells or more were scored, and 5 replicate dishes containing 10-150 colonies/dish were counted for each treatment. Experiments were performed in duplicate."}, "[10]": {"system": "H226 cells", "experiment": "Radiation clonogenic survival, H226", "format": "cell-based, human", "settings": "erlotinib 0.1 μM for 3 days before irradiation, 6 and 9 Gy (p<0.05)", "protocol": "as §3"}, "[11]": {"system": "PCNA", "experiment": "Immunohistochemical determination of PCNA in H226 xenografts", "format": "in vivo, athymic mice"}, "[12]": {"system": "Egr-1, CXCL1, and IL-1β expression", "experiment": "Validation of gene expression by quantitative RT-PCR and western blot", "format": "cell-based, human", "settings": "UM-SCC6; erlotinib 1.0 μM x 24 hrs pretreatment, 6 Gy", "experimental": "as §2\nTo further validate the microarray findings, we performed quantitative real-time PCR (QPCR) using the SYBR green dye as previously described (Kleer, C. G., et al. (2003) Proc. Natl. Acad. Sci. USA 100(20):11606-11611). Briefly, 1 μg of total RNA isolated from each sample was reverse transcribed into first strand cDNA. Threshold levels were set for each experiment during the exponential phase of the PCR reaction using the SDS v 1.7 software (Applied Biosystems), and the quantity of DNA in each sample was calculated by interpolating its Ct value versus a standard curve of Ct values obtained from serially diluted cDNA from a mixture of all of the samples using Microsoft Excel. All standard curves had R2 values ≧0.99 over three orders of magnitude. The calculated quantity of the target gene for each sample was then divided by the average calculated quantity of the housekeeping genes glyceraldehyde-3 phosphate dehydrogenase (GAPD) and hydroxymethylbilane synthase (HMBS) corresponding to each sample to give a relative expression of the target gene for each sample. All oligonucleotide primers were synthesized by Integrated DNA Technologies. […]"}, "[13]": {"system": "refractory NSCLC", "settings": "refractory NSCLC patients receiving erlotinib; cited from earlier work"}, "[14]": {"system": "H226 xenografts", "experiment": "Tumor growth in athymic nude mice, H226 xenografts", "protocol": "(§4) Erlotinib was administered by oral gavage once daily for 3 weeks. Radiation treatment was delivered twice a week for 3 weeks using custom mouse jigs designed to expose only the tumor bed to radiation.\n(§5) Combination studies determining apoptosis induction were evaluated using Student's t test with the resultant P value representing a two-sided test of statistical significance."}, "[15]": {"system": "UM-SCC6 xenografts", "experiment": "Tumor growth in athymic nude mice, UM-SCC6 xenografts", "protocol": "as §4, §5"}, "[16]": {"settings": "erlotinib alone 0.8 mg daily oral gavage, 3 weeks"}, "[17]": {"settings": "erlotinib combined with radiation (2 Gy twice per week), 55-day observation, p<0.05"}}}
{"smiles": "C#Cc1cccc(Nc2ncnc3cc(OCCOC)c(OCCOC)cc23)c1", "note": "[erlotinib, [6,7-bis(2-methoxyethoxy)-4-quinazolin-4-yl]-(3-ethynylphenyl) amine]", "values": [{"measurement": "S phase fraction", "setting": "[1]; erlotinib (0.1 μM) combined with radiation (6 Gy)", "result": "further reduction in the S phase fraction"}, {"measurement": "cell cycle phase distribution, G1", "setting": "[1]; erlotinib alone (0.1 μM)", "result": "accumulation of cells in G1"}, {"measurement": "number of cells in S phase", "setting": "[1]; erlotinib alone (0.1 μM)", "result": "reduced the number of cells in S phase"}, {"measurement": "increase in apoptosis as determined by caspase activity", "setting": "[2]", "result": "10-25%"}, {"measurement": "increase in apoptosis, combined treatment", "setting": "[3]", "result": "additive increase in apoptosis"}, {"measurement": "increase in apoptosis, combined treatment", "setting": "[4]", "result": "additive increase in apoptosis"}, {"measurement": "increase in apoptosis induction, combined treatment", "setting": "[5]", "result": "supra-additive increase in apoptosis induction"}, {"measurement": "PARP cleavage", "setting": "[6]; erlotinib 1 μM combined with radiation 6 Gy, UM-SCC1", "result": "Further increase in PARP cleavage"}, {"measurement": "PARP cleavage", "setting": "[6]; erlotinib alone 1 μM, 10 and 24 hours following treatment", "result": "modest PARP cleavage"}, {"measurement": "enhancement in PARP cleavage", "setting": "[7]", "result": "even more pronounced"}, {"measurement": "radiation-induced increase in Rad51 expression", "setting": "[8]", "result": "attenuated significantly"}, {"measurement": "radiosensitization (reduction in clonogenic survival)", "setting": "[9]", "result": "modest but consistent radiosensitization"}, {"measurement": "radiosensitization (reduction in clonogenic survival)", "setting": "[10]", "result": "modest but consistent radiosensitization"}, {"measurement": "number of proliferating cells (PCNA staining)", "setting": "[11]; combined erlotinib/radiation", "result": "smallest"}, {"measurement": "number of proliferating cells (PCNA staining)", "setting": "[11]; erlotinib alone", "result": "intermediate"}, {"measurement": "radiation-induced enhancement of CXCL1 expression", "setting": "[12]", "result": "inhibited"}, {"measurement": "radiation-induced enhancement of Egr-1 expression", "setting": "[12]", "result": "inhibited"}, {"measurement": "radiation-induced enhancement of IL-1β expression", "setting": "[12]", "result": "inhibited"}, {"measurement": "survival", "setting": "[13]", "result": "survival extension"}, {"measurement": "tumor growth", "setting": "[14]; [16]", "result": "modest inhibition of tumor growth"}, {"measurement": "tumor growth inhibition, nature of combination effect", "setting": "[14]; [17]", "result": "synergistic"}, {"measurement": "tumor growth", "setting": "[15]; [16]", "result": "modest inhibition of tumor growth"}, {"measurement": "tumor growth inhibition, nature of combination effect", "setting": "[15]; [17]", "result": "additive"}]}
